Measurements reported in patent US12037346B2, “Amino-substituted heteroaryls for treating cancers with EGFR mutations” (Nuvalent, Inc., priority 2021, dated 2024).

Key:
Format in all cases: cell-based
[1] = tested on: A431 cells (amplification of the wild-type EGFR gene), phospho-ERK Thr202/Tyr204; experiment: Cellular phosphorylation assay, pERK (phospho-ERK Thr202/Tyr204 AlphaLISA) in A431; details: Homo sapiens, A-431, compound incubated for 5 hours
Procedure: (§1) Besides Ba/F3s, two commercially available cell lines were also used. NCI-H1781 is a HER2 exon20 insertion cell line bearing HER2-A775_G776insV-G776C. A431 bears amplification of the wild-type EGFR gene.
(§2) Ba/F3 cells were plated at 50,000 cells/well (40 μL), or NCI-H1781 cells or A431 cells were plated at 12,500 cells/well (40 μL), in a 384-well plate for 1 day. Test compounds (40 nL) were then added in a 3-fold dilution series using the TECAN EV0200 liquid handler and incubated for 5 hours. Only for pEGFR analysis in A431, the cells were briefly stimulated with EGF (30 ng/mL) for 15 minutes. Media were removed using Apricot Designs. Phosphoproteins were analyzed using the phospho-EGFR Tyr1068 AlphaLISA kit (“pEGFR”; PerkinElmer #ALSU-PEGFR-B10K;) phospho-ERK Thr202/Tyr204 AlphaLISA kit (“pERK”; PerkinElmer #ALSU-PERK-A10K) or the phospho-ErbB2 Tyr1221/1222 AlphaLISA kit (“pHER2”; PerkinElmer #ALSU-PEB2-A10K;) according to the manufacturer's instructions. Briefly, cells were lysed with lysis buffer (10 μL) containing protease-inhibitor and phosphatase-inhibitor cocktails. The lysates were transferred into a new optical plate, incubated with the acceptor mix (5 μL) for 1.5-2 hours at room temperature in darkness, and then mixed with the donor mix (5 μL) overnight in darkness. Fluorescence was measured on a plate reader using the appropriate AlphaLISA settings. Half-maximal inhibitory concentration (IC50) was calculated from percent inhibition and inhibitor concentration using four-parameter logistic regression. […]

[2] = tested on: NCI-H1781 cells (HER2-A775_G776insV-G776C); experiment: Cell proliferation assay (CellTiter-Glo), NCI-H1781; details: first inflexion of biphasic curve
Procedure: as §1
(§3) Ba/F3 cells were plated at 1,000 cells/well (40 μL), or NCI-H1781 or A431 cells were plated at 2,000 cells/well (40 μL), in a 384-well plate for 1 day. Test compounds (40 nL) were then added in a 3-fold dilution series using the TECAN EV0200 liquid handler and incubated for 48 hours (“2 days”), 72 hours (“3 days”), or 48 hours followed by renewal of compound solutions and further incubation for 72 hours (“2 days/3 days”). The 72-hour assay was necessary for NCI-H1781 cells, which are slow-growing, and the resupply of fresh compounds on day 3 obviated the potential confounding effects arising from compound degradation in cell media over 72 hours. Plates were equilibrated at room temperature for 15 minutes followed by addition of 40 μL CellTiter-Glo reagent (Promega). Luminescence was measured on a plate reader. Half-maximal inhibitory concentration (IC50) was calculated from percent inhibition and inhibitor concentration using four-parameter logistic regression. […] In these cases, the regression curve was drawn only for the first inflexion to accurately measure on-target growth inhibitory effect.
(§4) Ba/F3, NCI-H1781, and A431 proliferation is driven by the oncogenes in the same way that cancer cell proliferation in humans is driven by the expression of equivalent oncogenes.

[3] = molecular target: T1, wild-type EGFR (A431 cells) (Homo sapiens, UniProt P00533); experiment: Cellular phosphorylation assay, pEGFR (phospho-EGFR Tyr1068 AlphaLISA) in A431; details: compound incubated for 5 hours, EGF (30 ng/mL) for 15 minutes
T1 construct: A431 bears amplification of the wild-type EGFR gene; endogenous in cells; host or cells: A431
T1 sequence (P00533 25-1210): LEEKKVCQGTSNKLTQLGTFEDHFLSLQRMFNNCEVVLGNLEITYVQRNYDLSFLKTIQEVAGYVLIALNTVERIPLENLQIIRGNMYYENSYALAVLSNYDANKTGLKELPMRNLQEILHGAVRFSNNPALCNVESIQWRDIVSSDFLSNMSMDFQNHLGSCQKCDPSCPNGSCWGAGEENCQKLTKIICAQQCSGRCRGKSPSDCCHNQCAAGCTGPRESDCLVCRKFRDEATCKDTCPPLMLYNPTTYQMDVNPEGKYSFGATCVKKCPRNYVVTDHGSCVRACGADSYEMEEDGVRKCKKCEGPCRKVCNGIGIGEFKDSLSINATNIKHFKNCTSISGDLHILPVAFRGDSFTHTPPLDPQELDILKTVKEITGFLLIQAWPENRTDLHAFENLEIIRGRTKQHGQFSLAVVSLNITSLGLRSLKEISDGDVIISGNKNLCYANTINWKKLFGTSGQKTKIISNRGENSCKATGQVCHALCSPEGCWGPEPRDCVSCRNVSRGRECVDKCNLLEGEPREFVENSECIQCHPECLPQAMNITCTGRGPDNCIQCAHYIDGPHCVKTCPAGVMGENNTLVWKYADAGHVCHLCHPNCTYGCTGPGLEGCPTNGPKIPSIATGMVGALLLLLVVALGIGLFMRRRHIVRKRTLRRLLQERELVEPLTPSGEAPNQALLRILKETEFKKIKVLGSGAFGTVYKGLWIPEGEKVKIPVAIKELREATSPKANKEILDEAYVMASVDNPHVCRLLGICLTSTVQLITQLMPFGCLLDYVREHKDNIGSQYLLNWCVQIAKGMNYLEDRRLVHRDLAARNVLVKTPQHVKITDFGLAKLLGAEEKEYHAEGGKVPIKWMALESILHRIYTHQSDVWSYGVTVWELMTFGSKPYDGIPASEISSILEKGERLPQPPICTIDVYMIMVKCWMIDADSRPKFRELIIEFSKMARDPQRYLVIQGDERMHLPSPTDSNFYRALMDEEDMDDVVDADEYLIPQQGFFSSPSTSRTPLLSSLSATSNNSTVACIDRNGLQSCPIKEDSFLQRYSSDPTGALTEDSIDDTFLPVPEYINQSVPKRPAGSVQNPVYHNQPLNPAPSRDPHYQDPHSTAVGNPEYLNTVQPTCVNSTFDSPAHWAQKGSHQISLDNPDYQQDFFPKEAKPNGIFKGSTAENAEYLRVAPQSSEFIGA
Procedure: as §1, §2

[4] = molecular target: Ba/F3 HER2-YVMA cells (HER2-A775_G776insYVMA) (Homo sapiens, UniProt P04626, DUP772-775, cells depend on it); experiment: Cell proliferation assay (CellTiter-Glo), Ba/F3 HER2-YVMA; details: read-out: Ba/F3 HER2-YVMA cell proliferation IC50
Chain of Ba/F3 HER2-YVMA cells (HER2-A775_G776insYVMA) (P04626 with tags, fused parts or gaps DUP772-775): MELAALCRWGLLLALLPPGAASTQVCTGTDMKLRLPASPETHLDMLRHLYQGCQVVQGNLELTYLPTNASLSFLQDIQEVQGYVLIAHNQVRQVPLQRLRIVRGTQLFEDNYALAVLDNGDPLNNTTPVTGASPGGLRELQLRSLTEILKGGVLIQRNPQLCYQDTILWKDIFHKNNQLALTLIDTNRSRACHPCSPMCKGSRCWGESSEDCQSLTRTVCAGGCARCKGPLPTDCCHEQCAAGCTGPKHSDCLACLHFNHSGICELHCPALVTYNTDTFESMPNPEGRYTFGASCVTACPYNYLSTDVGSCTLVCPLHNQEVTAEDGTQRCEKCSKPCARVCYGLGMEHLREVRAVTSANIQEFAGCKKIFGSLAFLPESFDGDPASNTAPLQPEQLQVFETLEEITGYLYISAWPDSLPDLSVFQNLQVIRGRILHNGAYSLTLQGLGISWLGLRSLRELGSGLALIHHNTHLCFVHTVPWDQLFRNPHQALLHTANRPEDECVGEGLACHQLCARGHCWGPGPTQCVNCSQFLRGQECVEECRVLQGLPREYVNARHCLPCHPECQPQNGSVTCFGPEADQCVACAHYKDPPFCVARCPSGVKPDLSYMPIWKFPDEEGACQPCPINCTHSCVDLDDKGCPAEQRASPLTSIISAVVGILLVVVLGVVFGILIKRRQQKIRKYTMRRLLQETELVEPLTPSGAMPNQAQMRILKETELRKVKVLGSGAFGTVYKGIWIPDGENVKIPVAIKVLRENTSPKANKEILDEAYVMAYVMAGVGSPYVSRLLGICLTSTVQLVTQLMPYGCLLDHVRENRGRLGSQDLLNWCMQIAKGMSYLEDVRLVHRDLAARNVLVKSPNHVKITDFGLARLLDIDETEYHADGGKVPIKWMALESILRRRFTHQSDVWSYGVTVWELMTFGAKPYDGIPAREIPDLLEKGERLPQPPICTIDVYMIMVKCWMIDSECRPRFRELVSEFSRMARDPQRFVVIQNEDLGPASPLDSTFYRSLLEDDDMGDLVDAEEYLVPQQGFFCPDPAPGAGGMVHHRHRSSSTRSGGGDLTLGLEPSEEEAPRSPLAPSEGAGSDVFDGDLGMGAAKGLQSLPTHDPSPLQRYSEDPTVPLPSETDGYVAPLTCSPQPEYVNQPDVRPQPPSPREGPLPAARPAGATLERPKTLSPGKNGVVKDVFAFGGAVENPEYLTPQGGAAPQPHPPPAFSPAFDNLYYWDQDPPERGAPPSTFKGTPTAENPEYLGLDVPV
Procedure: The gene encoding HER2-A775_G776insYVMA (“HER2-YVMA”) was synthesized at GeneRay, cloned into the retroviral construct pMSCV-puro (Biovector), and packaged into retroviral particles. The virus was used to infect Ba/F3 cells (RIKEN) at multiplicity of infection=1 or 10 for 1 day. Infected cells were rescued in media (RPMI-1640 with 10% fetal bovine serum and 1% streptomycin and penicillin) supplemented with mouse IL-3 (10 ng/mL) for 2 days, and stable cell lines were selected by IL-3 withdrawal and puromycin (0.8 μg/mL) for 7 days. Monoclones were selected by single-cell dilution in IL-3-free medium containing puromycin ([…]). Transformation of desired genes was confirmed by Sanger sequencing and western blot using the following antibody: HER2 (CST #2242).
as §3, §4

| IC50 [1] | IC50 [2] | IC50 [3] | GI50 [4] | Structure (SMILES) |
| --- | --- | --- | --- | --- |
| ≥ 1000 nM | < 100 nM | ≥ 1000 nM | < 100 nM | C=CC(=O)N1CCN(c2ccc3ncnc(Nc4ccc(Oc5ccn6ncnc6c5)c(C)c4)c3c2OC)CC1 [Example 20] |
| ≥ 1000 nM | 100 to 500 nM | ≥ 1000 nM | 100 to 500 nM | C=CC(=O)N1CCN(c2ncc3ncnc(Nc4cc(C)c(Oc5ccn6ncnc6c5)cc4F)c3n2)C[C@@H]1C [Example 36] |
| ≥ 1000 nM | < 100 nM | 500 to 1000 nM | < 100 nM | C=CC(=O)N1CC=C(c2ncc3ncnc(Nc4ccc(Oc5ccn6ncnc6c5)c(C)c4F)c3n2)CC1 [Example 37] |
|  | < 100 nM | ≥ 1000 nM | < 100 nM | C=CC(=O)N1CC=C(c2ncc3ncnc(Nc4ccc(Oc5ccn6ncnc6c5)c(C)c4F)c3n2)C[C@@H]1C [Example 42] |
| < 100 nM | < 100 nM | < 100 nM | < 100 nM | C=CC(=O)N1CCN(c2ncc3ncnc(Nc4ccc(Oc5ccn6ncnc6c5)c(C)c4F)c3n2)[C@H](C)[C@@H]1C (relative stereo) [Example 40] |
|  | < 100 nM | ≥ 1000 nM | < 100 nM | C=CC(=O)N1CCN(c2ccc3ncnc(Nc4ccc(Oc5ccn6ncnc6c5)c(C)c4)c3c2F)CC1 [Example 29] |
| ≥ 1000 nM | ≥ 1000 nM | ≥ 1000 nM | ≥ 1000 nM | C=C(F)C(=O)N1CC=C(c2ccc3ncnc(Nc4ccc(Oc5ccn6ncnc6c5)c(C)c4)c3n2)CC1 [Example 31] |
| 100 to 500 nM | < 100 nM | 100 to 500 nM | < 100 nM | Cc1cc(Nc2ncnc3ccc(N4CCN(C(=O)/C=C/CN(C)C)CC4)nc23)ccc1Oc1ccn2ncnc2c1 [Example 7] |
| ≥ 1000 nM | 100 to 500 nM | ≥ 1000 nM | < 100 nM | C=CC(=O)N1CC=C(c2ccc3ncnc(Nc4ccc(Oc5cc(OC)n6ncnc6c5)c(C)c4)c3n2)CC1 [Example 15] |
| ≥ 1000 nM | 100 to 500 nM | ≥ 1000 nM | < 100 nM | C=CC(=O)N1CCN(c2ncc3ncnc(Nc4cc(C)c(Oc5ccn6ncnc6c5)cc4F)c3n2)[C@@H](C)C1 [Example 35] |
| 500 to 1000 nM | < 100 nM |  | < 100 nM | C=CC(=O)N1CCN(c2ncc3ncnc(Nc4ccc(Oc5ccn6ncnc6c5)c(C)c4F)c3n2)C[C@H]1C [Example 32] |
|  | 100 to 500 nM | ≥ 1000 nM | 100 to 500 nM | C=CC(=O)N1CCN(c2ncc3ncnc(Nc4cc(C)c(Oc5ccn6ncnc6c5)cc4F)c3n2)[C@H](C)C1 [Example 34] |
| ≥ 1000 nM | < 100 nM | ≥ 1000 nM | < 100 nM | C=CC(=O)N1CC=C(c2ccc3ncnc(Nc4ccc(Oc5cc(C)n6ncnc6c5)c(C)c4)c3n2)CC1 [Example 17] |
|  | 100 to 500 nM | ≥ 1000 nM | < 100 nM | C=CC(=O)N1CC=C(c2ccc3ncnc(Nc4cc(C)c(Oc5ccn6ncnc6c5)cc4F)c3n2)CC1 [Example 11] |
|  | 100 to 500 nM | ≥ 1000 nM | 100 to 500 nM | C=CC(=O)N1C[C@@H](C)N(c2ncc3ncnc(Nc4ccc(Oc5ccn6ncnc6c5)c(C)c4F)c3n2)C[C@H]1C [Example 44] |
| < 100 nM | < 100 nM | < 100 nM | < 100 nM | C=CC(=O)N1C[C@@H]2CC[C@H]1CN2c1ncc2ncnc(Nc3ccc(Oc4ccn5ncnc5c4)c(C)c3F)c2n1 [Example 41] |
| ≥ 1000 nM | 500 to 1000 nM | ≥ 1000 nM | 100 to 500 nM | C=CC(=O)N1CCN(c2ncc3ncnc(Nc4ccc(Oc5ccn6ncnc6c5)c(C(F)(F)F)c4F)c3n2)C[C@H]1C [Example 39] |
| ≥ 1000 nM | < 100 nM | ≥ 1000 nM | < 100 nM | C=CC(=O)N1CCN(c2ccc3ncnc(Nc4ccc(Oc5ccn6ncnc6c5)c(C)c4)c3n2)C(=O)C1 [Example 8] |
| 100 to 500 nM | < 100 nM | 100 to 500 nM | < 100 nM | C=CC(=O)N1CCN(c2ncc3ncnc(Nc4ccc(Oc5ccn6ncnc6c5)c(C)c4F)c3n2)[C@@H](C)C1 [Example 43] |
| 100 to 500 nM | < 100 nM | 100 to 500 nM | < 100 nM | C=CC(=O)N1CCN(c2ccc3ncnc(Nc4ccc(Oc5ccn6ncnc6c5)c(C)c4)c3n2)C[C@H]1C [Example 6] |
| 500 to 1000 nM | < 100 nM | ≥ 1000 nM | < 100 nM | C=CC(=O)N1CCN(c2ccc3ncnc(Nc4ccc(Oc5ccn6ncnc6c5)c(C)c4)c3n2)[C@@H](C)C1 [Example 22] |
| 500 to 1000 nM |  | ≥ 1000 nM | < 100 nM | C=CC(=O)N1CC=C(c2ncc3ncnc(Nc4ccc(Oc5ccn6ncnc6c5)c(C)c4F)c3n2)C[C@H]1C [Example 80] |
| ≥ 1000 nM | 100 to 500 nM | ≥ 1000 nM | < 100 nM | C=CC(=O)N1C[C@H]2CC[C@@H]1CN2c1ncc2ncnc(Nc3ccc(Oc4ccn5ncnc5c4)c(C)c3F)c2n1 [Example 45] |
| 500 to 1000 nM | 100 to 500 nM | 500 to 1000 nM | < 100 nM | C=CC(=O)N1CC=C(c2ccc3ncnc(Nc4ccc(Oc5cc(Cl)n6ncnc6c5)c(C)c4)c3n2)CC1 [Example 16] |
|  | 100 to 500 nM | ≥ 1000 nM | 100 to 500 nM | C=CC(=O)N1CC=C(c2ncc3ncnc(Nc4cc(C)c(Oc5ccn6ncnc6c5)cc4F)c3n2)CC1 [Example 38] |
| 100 to 500 nM |  | 100 to 500 nM | < 100 nM | Cc1c(Oc2ccn3ncnc3c2)ccc(Nc2ncnc3cnc(C4=C[C@@H](C)N(C(=O)/C=C/CN(C)C)CC4)nc23)c1F [Example 83] |
| ≥ 1000 nM |  | ≥ 1000 nM | 100 to 500 nM | Cc1cc(Nc2ncnc3ccc(C4=CCN(C(=O)/C=C/C5CCCN5C)CC4)nc23)ccc1Oc1ccn2ncnc2c1 (centres unmarked) [Example 25] |
